Reference: patent US8044045B2, “Indazole-carboxamide compounds as 5-HT4 receptor agonists” (Theravance, Inc., priority 2004, dated 2011)

Test: Pharmacokinetic study in the rat
Assay type: in vivo
Procedure: Aqueous solution formulations of test compounds were prepared in 0.1% lactic acid at a pH of between about 5 and about 6. Male Sprague-Dawley rats (CD strain, Charles River Laboratories, Wilmington, Mass.) were dosed with test compounds via intravenous administration (IV) at a dose of 2.5 mg/kg or by oral gavage (PO) at a dose of 5 mg/kg. The dosing volume was 1 mL/kg for IV and 2 mL/kg for PO administration. Serial blood samples were collected from animals pre-dose, and at 2 (IV only), 5, 15, and 30 min, and at 1, 2, 4, 8, and 24 hours post-dose. Concentrations of test compounds in blood plasma were determined by liquid chromatography-mass spectrometry analysis (LC-MS/MS) (MDS SCIEX, API 4000, Applied Biosystems, Foster City, Calif.) with a lower limit of quantitation of 1 ng/mL.
Standard pharmacokinetic parameters were assessed by non-compartmental analysis (Model 201 for IV and Model 200 for PO) using WinNonlin (Version 4.0.1, Pharsight, Mountain View, Calif.). The maximum in the curve of test compound concentration in blood plasma vs. time is denoted Cmax. The area under the concentration vs. time curve from the time of dosing to the last measurable concentration (AUC(0-t)) was calculated by the linear trapezoidal rule. Oral bioavailability (F(%)), i.e. the dose-normalized ratio of AUC(0-t) for PO administration to AUC(0-t) for IV administration, was calculated as: F(%)=AUCPO/AUCIV×DoseIV/DosePO×100%

[1] = male Sprague-Dawley rats, blood plasma, PO 5 mg/kg

## CC(=O)N1CCN(CCN2[C@@H]3CC[C@H]2CC(NC(=O)c2nn(C(C)C)c4ccccc24)C3)CC1 (stereo partly drawn) [Example 1, 1-isopropyl-1H-indazole-3-carboxylic acid {(1S,3R,5R)-8-[2-(4-acetylpiperazin-1-yl)ethyl]-8-azabicyclo[3.2.1]oct-3-yl}amide]
[1]
  AUC(0-t): 730 ng·h/mL
  Cmax: 250 ng/mL
rat, PO 5 mg/kg versus IV 2.5 mg/kg, dose-normalized AUC(0-t) ratio
  oral bioavailability (F(%)): about 100%
